The test system of one experiment is Escherichia coli. As to the kind of experiment: Antimicrobial activity against Escherichia coli Nissle1917 assessed as inhibition of microbial growth incubated at 30 degC for 24 hrs by paper disk method. Type of experiment: functional, organism-based.
Another experiment has as its system Saccharomyces cerevisiae. In words: Antimicrobial activity against Saccharomyces cerevisiae assessed as inhibition of microbial growth at 50 ug/disk incubated at 30 degC for 24 hrs by paper disk method. Type of experiment: functional.
For a further experiment, the system named is Bacillus subtilis. As to the kind of experiment: Antimicrobial activity against Bacillus subtilis NCIB3610 assessed as inhibition of microbial growth at 50 ug/disk incubated at 30 degC for 24 hrs by paper disk method. The conditions noted are these: NCIB3610, 24 h, read-out: IZ. Type of experiment: functional.

SMILES strings stand for the structures. Calls of active or inactive are those of the source. The rule behind the calls is not given here.

The results in this text go back to ChEMBL document CHEMBL3580632, “Lumiquinone A, an α-Aminomalonate-Derived Aminobenzoquinone from Photorhabdus luminescens” (2015).

Take `CC(C)c1c(O)cc(/C=C/c2ccccc2)cc1O`: the “growth inhibition (GI)” value in the experiment on Escherichia coli was “inactive”. Moreover, the “growth inhibition (GI)” value in the experiment on Saccharomyces cerevisiae is “Active”.
Take `CC(C)C1=C(O)C(=O)C(/C=C/c2ccccc2)=C(N)C1=O`: the zone of inhibition at 50 µg/disc with Bacillus subtilis amounted to 4 mm. In addition, in the experiment on Escherichia coli, the “growth inhibition (GI)” value was “inactive”.
